Measurements published in PubChem BioAssay AID743310 (Sanford-Burnham Center for Chemical Genomics, 2014).
Activity calls are given as the source filed them.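 Rule for the calls: active = IC50 at or below 20 µM; inactive = the rest.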

Target: Dual specificity protein phosphatase 3 (Homo sapiens) (UniProt P51452)
Experiment: DUSP3 enzyme activity inhibitors – biochemical, fluorescence, OMFP substrate, selectivity assay for LMPTP inhibitor project, SAR follow-up (AID 743310)
Conditions: recombinant VHR, OMFP fluorogenic substrate, 50 min

Dual specificity protein phosphatase 3 (Homo sapiens), sequence (P51452 whole entry, looked up): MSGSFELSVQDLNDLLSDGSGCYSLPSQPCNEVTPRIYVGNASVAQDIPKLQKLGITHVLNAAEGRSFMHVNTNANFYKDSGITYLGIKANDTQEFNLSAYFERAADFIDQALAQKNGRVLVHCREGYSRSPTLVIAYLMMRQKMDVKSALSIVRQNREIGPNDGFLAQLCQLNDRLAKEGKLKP

| Structure (SMILES) | IC50 |
| --- | --- |
| COc1cc2nc(-c3ccccc3)cc(NCCCN3CCCCC3)c2cc1OC | > 80 µM (inactive) |
| O=C(OCCNc1nc(-c2ccccc2)nc2ccccc12)c1ccncc1 | > 80 µM (inactive) |
| c1ccc(-c2nc(N3CCSCC3)c3ccccc3n2)cc1 | > 80 µM (inactive) |
| c1ccc(-c2nc(NC3CCCC3)c3ccccc3n2)cc1 | > 80 µM (inactive) |
| CCN(CC)c1nc(-c2ccccc2)nc2ccccc12 | > 80 µM (inactive) |
| Fc1ccccc1-c1nc(NCCCN2CCOCC2)c2ccccc2n1 | > 80 µM (inactive) |
| CC(C)Nc1nc(-c2ccccc2)nc2ccccc12 | > 80 µM (inactive) |
| c1ccc(-c2nc(N3CCOCC3)c3ccccc3n2)cc1 | > 80 µM (inactive) |
| Cc1ccc(-c2nc(NCc3cccnc3)c3ccccc3n2)cc1 | > 80 µM (inactive) |
| Clc1cccc(Cl)c1Cn1cnc(=NCc2ccco2)c2[nH]cnc21 | > 80 µM (inactive) |
| Cc1c(CCC(=O)O)c(=O)oc2c(C)c(OCc3ccccc3Cl)ccc12 | 5.21 µM |
| c1ccc(-c2nc(NCc3cccnc3)c3ccccc3n2)cc1 | > 80 µM (inactive) |
| Nc1nc(N)c(Cc2ccc(Cl)cc2Cl)c(N)n1 | > 80 µM (inactive) |
| c1ccc(-c2nc(NC3CC3)c3ccccc3n2)cc1 | > 80 µM (inactive) |
| c1ccc(-c2nc(NC3CCCCC3)c3ccccc3n2)cc1 | > 80 µM (inactive) |
| CC(C)OCCCNc1nc(-c2ccccc2)nc2ccccc12 | > 80 µM (inactive) |

| Structure (SMILES) | IC50 |
| --- | --- |
| c1ccc(-c2nc(NCCCN3CCOCC3)c3ccccc3n2)cc1 | > 80 µM (inactive) |
| CN(C)CCNc1nc(-c2ccccc2)nc2ccccc12 | > 80 µM (inactive) |
| CN1CCN(c2nc(-c3ccccc3)nc3ccccc23)CC1 | > 80 µM (inactive) |
| CC1CCN(c2nc(-c3ccccc3)nc3ccccc23)CC1 | > 80 µM (inactive) |
| CC(C)CNc1nc(-c2ccccc2)nc2ccccc12 | > 80 µM (inactive) |
| COc1ccccc1CNc1ncnc2ccsc12 | > 80 µM (inactive) |
| CCc1nc(N)nc(N)c1-c1ccc(Cl)cc1 | > 80 µM (inactive) |
| Cc1ccc(-c2nc(NCCN3CCOCC3)c3ccccc3n2)cc1 | > 80 µM (inactive) |
| Fc1ccccc1-c1nc(NC2CCCC2)c2ccccc2n1 | > 80 µM (inactive) |
| Cc1cccc(-c2nc(NCCCN3CCOCC3)c3ccccc3n2)c1 | > 80 µM (inactive) |
| CN(C)CCNc1cc(-c2ccccc2)nc2ccccc12 | > 80 µM (inactive) |
| c1ccc(-c2nc(NCCCn3ccnc3)c3ccccc3n2)cc1 | > 80 µM (inactive) |
| c1ccc(-c2nc(NCCN3CCOCC3)c3ccccc3n2)cc1 | > 80 µM (inactive) |
| O=C(OCCNc1nc(-c2ccccc2)nc2ccccc12)c1cccnc1 | > 80 µM (inactive) |
| CCCCNc1nc(-c2ccccc2)nc2ccccc12 | > 80 µM (inactive) |
| c1ccc(-c2nc(N3CCCC3)c3ccccc3n2)cc1 | > 80 µM (inactive) |

The remaining lines, values ahead:

| IC50 | Structure (SMILES) |
| --- | --- |
| > 80 µM (inactive) | Cc1ccc2nc(-c3ccccc3)cc(NCCCN3CCCCC3)c2c1 |
| > 80 µM (inactive) | c1ccc(-c2cc(NCCCN3CCOCC3)c3ccccc3n2)cc1 |
| > 80 µM (inactive) | Brc1ccc2nc(-c3ccccc3)cc(NCCCN3CCCCC3)c2c1 |
| > 80 µM (inactive) | c1ccc(-c2nc(N3CCCCC3)c3ccccc3n2)cc1 |
| > 80 µM (inactive) | c1ccc(-c2nc(NCCN3CCCC3)c3ccccc3n2)cc1 |
| > 80 µM (inactive) | Clc1cccc(-c2cc(NCCCN3CCCCC3)c3ccccc3n2)c1 |
| > 80 µM (inactive) | c1ccc(-c2nc(NCCN3CCCCC3)c3ccccc3n2)cc1 |
| > 80 µM (inactive) | c1ccc(-c2nc(N3CCCCCC3)c3ccccc3n2)cc1 |
| > 80 µM (inactive) | c1ccc(-c2cc(NCCN3CCCC3)c3ccccc3n2)cc1 |
| > 80 µM (inactive) | COc1ccccc1-c1cc(NCCCN2CCCCC2)c2ccccc2n1 |
| > 80 µM (inactive) | Fc1cccc(-c2cc(NCCCN3CCCCC3)c3ccccc3n2)c1 |
| > 80 µM (inactive) | c1ccc(-c2nc(NCCCN3CCCCC3)c3ccccc3n2)cc1 |
| > 80 µM (inactive) | COc1cccc(-c2cc(NCCCN3CCCCC3)c3ccccc3n2)c1 |
| > 80 µM (inactive) | c1ccc(-c2cc(N3CCCCC3)c3ccccc3n2)cc1 |
| > 80 µM (inactive) | Fc1ccc2nc(-c3ccccc3)cc(NCCCN3CCCCC3)c2c1 |
| > 80 µM (inactive) | Clc1ccccc1-c1cc(NCCCN2CCCCC2)c2ccccc2n1 |
| > 80 µM (inactive) | Fc1ccc(-c2cc(NCCCN3CCCCC3)c3ccccc3n2)cc1 |
| > 80 µM (inactive) | c1ccc(-c2cc(OCCCN3CCCCC3)c3ccccc3n2)cc1 |
| > 80 µM (inactive) | Clc1ccc(-c2cc(NCCCN3CCCCC3)c3ccccc3n2)cc1 |
| > 80 µM (inactive) | FC(F)(F)c1cccc(-c2cc(NCCCN3CCCCC3)c3ccccc3n2)c1 |
| > 80 µM (inactive) | Cc1ccc(-c2cc(NCCCN3CCCCC3)c3ccccc3n2)cc1 |
| > 80 µM (inactive) | c1ccc(-c2cc(NCCN3CCOCC3)c3ccccc3n2)cc1 |
| > 80 µM (inactive) | c1ccc2c(NCCCN3CCCCC3)cc(-c3ccncc3)nc2c1 |
| > 80 µM (inactive) | c1ccc(-c2cc(NCCN3CCCCC3)c3ccccc3n2)cc1 |
| > 80 µM (inactive) | COc1ccc(-c2cc(NCCCN3CCCCC3)c3ccccc3n2)cc1 |
| > 80 µM (inactive) | c1ccc(-c2cc(SCCCN3CCCCC3)c3ccccc3n2)cc1 |
| > 80 µM (inactive) | c1ccc(-c2cc(NCCCN3CCCCC3)c3ccccc3n2)cc1 |
